Data published in patent US7223888B2, “Mu opioid receptor ligands: methods of use and synthesis” (President and Fellows of Harvard College, priority 2002, dated 2007).
Where two headings read alike, the source gives them in different places.

How the values were obtained:
hMOR-1 [1] = molecular target: T1, hMOR-1 (Homo sapiens, UniProt P35372); assay: MOR GTP-γ-S assay (MOR activation); assay type: biochemical; conditions: CHO membranes with hMOR-1; for % GTP-γ-S bound: Table 16, compound 10 μM, percentage of DAMGO induced GTP-γ-35S specific binding; for % GTP-γ-35S bound: Table 15, percentage of DAMGO induced GTP-g-35S specific binding
T1 construct: purchased Amersham Biosciences; host or cells: stably transfected CHO cells (membrane preparation)
Method: MOR GTP-γ-S assay was run in the same 200 μL, 96 well format as the binding assay. Each microassay contained experimental compound, 0.04 nM GTP-γ-^35S, 9 μM GDP, and about 0.02 nM MOR (from stably transfected CHO cells), in assay buffer (50 mM Tris-HCl, 3 mM MgCl2, 0.2 mM EGTA, 100 mM NaCl, pH 7.4). The assays were incubated for two to three hours at room temperature, then filtered onto a filter plate. The plate was dried; scintillation fluid was added, and the wells were counted for ^35S. Blank assays were run to determine non-specific binding. […] The results were averaged; the non-specific counts were subtracted, and the resulting value was expressed as a percent of the value obtained for DAMGO. The error reported is two standard deviations from the mean of the quadruplicate experiment. The values were compared using one way Anova with Tukey's post-hoc analysis.

hDOR-1 = molecular target: T2, hDOR-1 (Homo sapiens, UniProt P41143); assay: Opioid receptor competitive binding assay, DOR
T2 construct: purchased Amersham Biosciences; host or cells: stably transfected HEK-293 cells (membrane preparation)
Method: (§1) For selected compounds, Ki for MOR, DOR, and KOR were determined according to the following procedure: Recombinant hMOR-1 membrane preps from stably transfected CHO cells and recombinant hDOR-1 membrane preps from stably transfected HEK-293 cells were purchased from Amersham Biosciences. Guinea pig cerebellum preparations were used for KOR assays.
(§2) Each microassay from an assay plate was filtered through an individual well of a Packard GF/B 96-well filter plate (glass fiber filter) to collect the membranes. Each well was washed twice with 200 μL of ice cold wash buffer (50 mM Tris, pH 7.4). The filter plate was allowed to dry overnight, the back was sealed, and Packard Bioscience Microscint PS scintillation fluid (75 μL) was added to each well, which was then counted for ^3H for 2 minutes using a Packard Bioscience TopCount scintillation counter plate reader.
(§3) Each compound was assayed at 8 concentrations, using half-log serial dilutions. Each concentration was tested in triplicate, and the ^3H cpm were averaged.
(§4) This concentration was determined experimentally by scintillation counting an aliquot of the radioligand stock solution used in the assay.
(§5) Kd=the binding constant for the radioligand.
(§6) This triplicate experiment was repeated three times for the MOR and twice for the DOR and the KOR.

KOR = molecular target: T3, KOR (Cavia porcellus, UniProt P41144); assay: Opioid receptor competitive binding assay, KOR (3H-U-69,593); set-up: species or system guinea pig; conditions: for Ki KOR/Ki MOR: selectivity for MOR versus KOR
T3 construct: from tissue; host or cells: guinea pig cerebellum preparation
Method: as §1, §2, §3, §6

hMOR-1 [2] = molecular target: T1, hMOR-1; assay: Opioid receptor competitive binding assay, MOR (3H-DAMGO); conditions: Ki MOR, 3H-DAMGO, hMOR-1 stably transfected into CHO cells
Method: as §1, §2, §3, §4, §5, §6

[3] = Ki DOR, Table 7, 3H-diprenorphine, hDOR-1 stably transfected into HEK-293 cells, errors two standard deviations
[4] = Table 13, selectivity for MOR versus DOR (footnote: 3H-DPDPE, hDOR-1)
[5] = Ki KOR, Table 10, 3H-U-69,593, guinea pig cerebellum preparation, errors two standard deviations
[6] = Table 4, errors 95% confidence interval
[7] = Ki DOR, Table 6, footnote:, hDOR-1 stably transfected into HEK-293 cells, errors two standard deviations
[8] = Table 12, selectivity for MOR versus DOR (3H-DPDPE, hDOR-1)
[9] = Ki KOR, Table 9, 3H-U-69,593, guinea pig cerebellum preps, errors two standard deviations
[10] = Table 3, errors 95% confidence interval

Compound	% GTP-γ-S bound (hMOR-1 [1]) [%]	Ki (hDOR-1; read-out: Ki DOR) [nM]	Ki (KOR; read-out: Ki KOR) [nM]	Ki (hMOR-1 [2]; Table 5) [nM]	% GTP-γ-35S bound (hMOR-1 [1]; compound 10 mM (footnote)) [%]	Ki (hDOR-1; [3]) [nM]	Ki DOR/Ki MOR (hDOR-1; [4])	Ki (KOR; [5]) [nM]	Ki KOR/Ki MOR (KOR; Table 13)	Ki (hMOR-1 [2]; [6]) [nM]	further results
NC(=O)C(Cc1ccccc1)NC(=O)C(Cc1ccccc1)C(O)/C=C/C(O)CC(N)Cc1ccc(O)cc1 (single isomer, unassigned) [(R, R, S, S)-43, 7-(1-Carbamoyl-2-phenyl-ethylcarbamoyl)-3,6-dihydroxy-1-(4-hydroxy-benzyl)-8-phenyl-oct-4-enyl-ammonium]	30 ± 6	1200 ± 100	880 ± 550	38 ± 13	–	–	–	–	–	–	–
NC(=O)C(Cc1ccccc1)NC(=O)C(Cc1ccccc1)C(O)/C=C/C(O)CC(N)Cc1ccc(O)cc1 (single isomer, unassigned) [(R, S, R, R)-43, 7-(1-Carbamoyl-2-phenyl-ethylcarbamoyl)-3,6-dihydroxy-1-(4-hydroxy-benzyl)-8-phenyl-oct-4-enyl-ammonium]	68 ± 10	2500 ± 300	270 ± 30	20 ± 3	–	–	–	–	–	–	–
NC(=O)C(Cc1ccccc1)NC(=O)C(Cc1ccccc1)C(O)/C=C/C(O)CC(N)Cc1ccc(O)cc1 (single isomer, unassigned) [(S, R, R, S)-43, 7-(1-Carbamoyl-2-phenyl-ethylcarbamoyl)-3,6-dihydroxy-1-(4-hydroxy-benzyl)-8-phenyl-oct-4-enyl-ammonium]	48 ± 8	2500 ± 3000	1200 ± 600	28 ± 6	–	–	–	–	–	–	–
NC(=O)C(Cc1ccccc1)NC(=O)C(Cc1ccccc1)C(O)/C=C/C(O)CC(N)Cc1ccc(O)cc1 (single isomer, unassigned) [(S, R, S, R)-43, 7-(1-Carbamoyl-2-phenyl-ethylcarbamoyl)-3,6-dihydroxy-1-(4-hydroxy-benzyl)-8-phenyl-oct-4-enyl-ammonium]	37 ± 7	740 ± 40	290 ± 100	32 ± 6	–	–	–	–	–	–	–
NC(=O)C(Cc1ccccc1)NC(=O)C(Cc1ccccc1)C(O)/C=C/C(O)CC(N)Cc1ccc(O)cc1 (single isomer, unassigned) [(S, R, S, S)-43, 7-(1-Carbamoyl-2-phenyl-ethylcarbamoyl)-3,6-dihydroxy-1-(4-hydroxy-benzyl)-8-phenyl-oct-4-enyl-ammonium]	57 ± 12	2500 ± 300	3100 ± 2600	42 ± 5	–	–	–	–	–	–	–
NC(=O)C(Cc1ccccc1)NC(=O)C(Cc1ccccc1)C(O)/C=C/C(O)CC(N)Cc1ccc(O)cc1 (single isomer, unassigned) [(S, S, R, S)-43, 7-(1-Carbamoyl-2-phenyl-ethylcarbamoyl)-3,6-dihydroxy-1-(4-hydroxy-benzyl)-8-phenyl-oct-4-enyl-ammonium]	25 ± 5	1200 ± 100	450 ± 60	14 ± 1	–	–	–	–	–	–	–
Cc1cc(O)cc(C)c1CC(N)C(O)C/C=C/C(O)C(Cc1ccccc1)C(=O)NC(Cc1ccccc1)C(N)=O (single isomer, unassigned) [(S,R,R,R)-25, 7-(1-Carbamoyl-2-phenyl-ethylcarbamoyl)-2,6-dihydroxy-1-(4-hydroxy-2,6-dimethyl-benzyl)-8-phenyl-oct-4-enyl-ammonium]	–	–	–	–	43 ± 9	85 ± 13	53	25 ± 14	16	1.6 ± 0.9	–
Cc1cc(O)cc(C)c1CC(N)C(O)C/C=C/C(O)C(Cc1ccccc1)C(=O)NCCc1ccccc1 (single isomer, unassigned) [(S,R,R,R)-26, 2,6-Dihydroxy-1-(4-hydroxy-2,6-dimethyl-benzyl)-7-phenethylcarbamoyl-8-phenyl-oct-4-enyl-ammonium]	–	–	–	–	27 ± 9	66 ± 1	91	69 ± 20	96	0.72 ± 0.26	–
Cc1cc(O)cc(C)c1CC(N)C(O)C/C=C/C(O)C(Cc1ccccc1)C(=O)NC(Cc1ccccc1)C(N)=O (single isomer, unassigned) [(S,R,S,R)-25, 7-(1-Carbamoyl-2-phenyl-ethylcarbamoyl)-2,6-dihydroxy-1-(4-hydroxy-2,6-dimethyl-benzyl)-8-phenyl-oct-4-enyl-ammonium]	–	–	–	–	14 ± 3	46 ± 16	38	15 ± 8	13	1.2 ± 0.3	–
Cc1cc(O)cc(C)c1CC(N)C(O)C/C=C/C(O)C(Cc1ccccc1)C(=O)NCCc1ccccc1 (single isomer, unassigned) [(S,R,S,R)-26, 2,6-Dihydroxy-1-(4-hydroxy-2,6-dimethyl-benzyl)-7-phenethylcarbamoyl-8-phenyl-oct-4-enyl-ammonium]	–	–	–	–	49 ± 4	123 ± 8	510	51 ± 1	210	0.24 ± 0.05	–
Cc1cc(O)cc(C)c1CC(N)C(O)C/C=C/C(O)C(Cc1ccccc1)C(=O)NC(Cc1ccccc1)C(N)=O (single isomer, unassigned) [(S,S,R,R)-25, 7-(1-Carbamoyl-2-phenyl-ethylcarbamoyl)-2,6-dihydroxy-1-(4-hydroxy-2,6-dimethyl-benzyl)-8-phenyl-oct-4-enyl-ammonium]	–	–	–	–	75 ± 11	36 ± 6	86	21 ± 4	49	0.42 ± 0.09	–
Cc1cc(O)cc(C)c1CC(N)C(O)C/C=C/C(O)C(Cc1ccccc1)C(=O)NCCc1ccccc1 (single isomer, unassigned) [(S,S,R,R)-26, 2,6-Dihydroxy-1-(4-hydroxy-2,6-dimethyl-benzyl)-7-phenethylcarbamoyl-8-phenyl-oct-4-enyl-ammonium]	–	–	–	–	48 ± 9	26 ± 3	70	64 ± 14	170	0.37 ± 0.13	–
NC(Cc1ccc(O)cc1)C(O)C/C=C/C(O)C(Cc1ccccc1)C(=O)NC(CO)Cc1ccccc1 (single isomer, unassigned) [(S,S,S,R)-11, (E)-8-Amino-2-benzyl-3,7-dihydroxy-9-(4-hydroxy-phenyl)-non-4-enoic acid (1-hydroxymethyl-2-phenyl-ethyl)-amide]	–	–	–	–	–	–	–	–	–	–	Ki (hDOR-1; [7]): 1100 ± 100 nM; Ki DOR/Ki MOR (hDOR-1; [8]): 110; Ki (KOR; [9]): 6000 ± 700 nM; Ki KOR/Ki MOR (KOR; Table 12): 600; Ki (hMOR-1 [2]; [10]): 10 ± 2 nM
C=CC(O)C(Cc1ccccc1)NC(=O)C(Cc1ccccc1)C(O)/C=C/CC(O)C(N)Cc1ccc(O)cc1 (single isomer, unassigned) [(S,S,S,R)-12, (E)-8-Amino-2-benzyl-3,7-dihydroxy-9-(4-hydroxy-phenyl)-non-4-enoic acid (1-benzyl-2-hydroxy-but-3-enyl)-amide]	–	–	–	–	–	–	–	–	–	–	Ki (hDOR-1; [7]): 680 ± 40 nM; Ki DOR/Ki MOR (hDOR-1; [8]): 34; Ki (KOR; [9]): 1050 ± 10 nM; Ki KOR/Ki MOR (KOR; Table 12): 53; Ki (hMOR-1 [2]; [10]): 20 ± 1 nM
NC(=O)C(Cc1ccccc1)OC(=O)C(Cc1ccccc1)C(O)/C=C/CC(O)C(N)Cc1ccc(O)cc1 [(S,S,S,R)-13, (E)-8-Amino-2-benzyl-3,7-dihydroxy-9-(4-hydroxy-phenyl)-non-4-enoic acid1-carbamoyl-2-phenyl-ethyl ester]	–	910 ± 250	6000 ± 2100	–	–	–	–	–	–	–	Ki (hMOR-1 [2]; [10]): 37 ± 8 nM
Cc1cc(O)cc(C)c1CC(N)C(O)C/C=C/C(O)C(Cc1ccccc1)C(=O)NC(CN)Cc1ccccc1 [(S,S,S,R)-28]	–	–	–	–	47 ± 5	21 ± 4	–	–	–	0.45 ± 0.05	–
NC(=O)[C@H](Cc1ccccc1)NC(=O)[C@H](Cc1ccccc1)NC(=O)[C@H]1CCCN1C(=O)[C@@H](N)Cc1ccc(O)cc1 [Compound 1, Endomorphin-2, reference compound]	100 ± 6	–	–	1 ± 0.1	–	–	–	–	–	0.69 ± 0.18	% GTP-γ-35S bound (hMOR-1 [1]; compound 10 μM (footnote)): 100 ± 6%; Ki (hMOR-1 [2]; [10]): 1.2 ± 0.1 nM
